From patent publication US12551500B2, “C6′-substituted locked nucleic acid-modified cap analog and use thereof” (Hangzhou Tianlong Pharmaceutical Co., Ltd., priority 2024, dated 2026)

How the values were obtained:
T7 RNA polymerase [1] = target: T1, T7 RNA polymerase (Escherichia phage T7, UniProt P00573); assay: In vitro transcription yield of mRNA with cap analog (co-transcriptional capping); type: biochemical; design: in vitro transcription yield of mRNA: unit not given here; conditions: for Yield per unit template: in vitro transcription, 1 μg DNA template, 20 μL system, 37° C. 2 hours
Method: (1) Capping synthesis using cap analogs
The plasmid was first linearized with plasmid linearizing enzyme, and then the linearized plasmid was purified.
(2) In vitro transcription and synthesis of mRNA
(§1) YK-CAP-001 to 006 and compound 14 in Table 1 were respectively used as cap analogs.
(§2) During the experiment, the volume of materials required for the system was first calculated, and then sample addition was conducted. The system was first added with sterile enzyme-free water, followed by the sequential addition of 10× buffer, NTPs, and cap analogs, mixed well, and gently centrifuged. Nuclease inhibitors, inorganic pyrophosphatase, T7 RNA polymerase, and linearized DNA templates were then added thereto. The system was mixed well, gently centrifuged, and incubated at 37° C. After 2 hours of incubation, the system was added with 1 U of DNase I and incubated at 37° C. for another 30 minutes. The mRNA precipitate was then washed with 75% ethanol, and after the ethanol was briefly evaporated to dryness, the mRNA was redissolved in sterile enzyme-free water.
(3) The transcription product was purified, and the in vitro transcription yield of mRNA was recorded.

[2] = Characterization of lipid nanoparticles encapsulating Fluc-mRNA; type: physicochemical; conditions: for Particle size: LNP (YK-009/DSPC/cholesterol/DMG-PEG2000) encapsulating Fluc-mRNA transcribed using the cap analog; for PDI: LNP encapsulating Fluc-mRNA transcribed using the cap analog; for EE: encapsulation efficiency of LNP encapsulating Fluc-mRNA transcribed using the cap analog
Method: Cationic lipid YK-009 (Beijing Youcare Kechuang Pharmaceutical Technology Co., Ltd.), DSPC (AVT (Shanghai) Pharmaceutical Technology Co., Ltd.), cholesterol (AVT (Shanghai) Pharmaceutical Technology Co., Ltd.), and DMG-PEG2000 were dissolved in ethanol at a molar ratio of 49:10:39.5:1.5, and the mRNA was diluted in 50 mM citrate buffer (pH=4). The ethanol lipid solution was mixed with the Fluc-mRNA aqueous solution prepared from different cap structures at a volume ratio of 1:3 using a microfluidic device at a flow rate of 10 mL/min to prepare LNPs at a weight ratio of total lipid to mRNA of approximately 15:1. The resulting liposomes were diluted to 10-fold volume with PBS, and then ultrafiltered with a 300 KDa ultrafiltration tube to remove ethanol. The volume was then fixed to a certain volume with PBS. Finally, the LNPs were filtered through a 0.2 μm sterile filter to obtain an LNP preparation encapsulating Fluc-mRNA using YK-009/DSPC/cholesterol/DMG-PEG2000 (at a molar ratio of 49:10:39.5:1.5).
The particle size and polydispersity index (PDI) were determined by dynamic light scattering using a Malvern laser particle size analyzer. 10 μL of the liposome solution was taken, diluted to 1 mL with RNase-free deionized water, and added to a sample pool. Each sample was measured in triplicate. The measurement conditions were: a scattering angle of 90° and a temperature of 25° C. The encapsulation efficiency of LNPs was determined using the Quant-iT RiboGreen RNA Quantification Kit (Thermo Fisher Scientific, UK) according to the manufacturer's instructions.

BALB/C mice = assay: In vivo imaging of protein expressed by LNP-carrying Fluc-mRNA in mice; conditions: female BALB/C mice
Method: The LNP preparation containing […] of Fluc-mRNAs transcribed using the cap analogs YK-CAP-001 to 006 in the present disclosure and the cap analogs N-7413, compound 14, and m6A in the prior art was intramuscularly injected into female BALB/C mice aged 4 to 6 weeks and weighing 17 to 19 g. At specific time points after administration (6 hours, 12 hours, 24 hours, 48 hours, 96 hours, and 168 hours), the mice were intraperitoneally injected with fluorescence imaging substrate. The mice were then allowed to move freely for 5 minutes, followed by detection of the average radiation intensity (corresponding to the amount of protein expression) of the protein expressed by LNP-carrying mRNA in the mice using an IVIS Spectrum small-animal in vivo imaging system.

T7 RNA polymerase [3] = target: T1, T7 RNA polymerase; assay: Capping rate of in vitro transcribed mRNA by LC-MS; type: biochemical; conditions: mRNA transcribed with the cap analog, LC-MS
Method: as §1, §2
(4) The obtained mRNA was subjected to an annealing reaction with a probe.
The annealing reaction was performed in a PCR instrument: 95° C. for 5 minutes; 65° C. for 2 minutes; 55° C. for 2 minutes; 40° C. for 2 minutes; 22° C. for 2 minutes.
(5) Magnetic bead pretreatment and probe binding: 100 μL of magnetic beads was placed on a magnetic frame for pretreatment. The magnetic bead solution was added with 120 μL of sample and incubated at room temperature for 30 minutes with slow mixing.
(6) mRNA splicing and obtaining the 5′ single-strand sequence bound to the probe
The mixture was added with 20 μL of RNase H (5 U/μL) and incubated at 37° C. for 3 hours with mixing every half hour. After incubation, the magnetic beads were washed and then added with 100 μL of 75% methanol heated to 80° C. The mixture was heated to 80° C. on a heating plate, held for 3 minutes, then placed on a magnetic frame to aspirate the supernatant, and dried at room temperature for 45 minutes to a volume of 10 μL using a centrifugal evaporator. The sample was then resuspended in 50 μL of 100 μM EDTA/1% MeOH and ready for LC-MS analysis to determine the capping of RNA in the transcription reaction. Since there is a significant difference in molecular weight between capped and uncapped bases, the capping rate of mRNA transcription initiated by different cap analogs can be determined based on the difference in molecular mass.

DCP2 enzyme = target: T2, DCP2 enzyme (Schizosaccharomyces pombe, UniProt O13828); assay: Decapping enzyme stability test; type: biochemical; conditions: 30 pmol RNA, 50 U mRNA decapping enzyme, 37° C., 45 minutes
T2 construct: purchased New England Biolabs
T2 sequence (O13828 1-243 limits assumed): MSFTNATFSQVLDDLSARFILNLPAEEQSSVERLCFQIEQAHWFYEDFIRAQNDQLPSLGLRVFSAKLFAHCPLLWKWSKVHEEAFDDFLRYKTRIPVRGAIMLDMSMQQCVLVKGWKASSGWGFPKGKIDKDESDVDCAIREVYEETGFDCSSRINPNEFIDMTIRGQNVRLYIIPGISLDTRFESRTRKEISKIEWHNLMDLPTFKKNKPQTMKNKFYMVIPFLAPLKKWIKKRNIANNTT
T2 sequence (Q9P805 1-127 partner): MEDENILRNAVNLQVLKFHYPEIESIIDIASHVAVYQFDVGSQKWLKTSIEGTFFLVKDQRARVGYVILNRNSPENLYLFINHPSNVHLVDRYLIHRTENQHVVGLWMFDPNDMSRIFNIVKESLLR
T2 sequence (Q10108 155-180 partner limits assumed): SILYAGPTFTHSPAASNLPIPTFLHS
Method: 30 pmol of RNAs purified by polyacrylamide gel electrophoresis (PAGE) was subjected to an enzymatic reaction with 50 U of mRNA decapping enzyme (New England Biolabs) and 1×MDE buffer at 37° C. for 45 minutes. The enzymatic reactants were subjected to PAGE and stained with SYBR Green II (Lonza), followed by observation of the post-electrophoresis gel image on a Typhoon FLA 7000 (GE Healthcare) instrument. The electrophoresis band intensity ratio of RNA capping to RNA decapping was counted using ImageQuant (GE Healthcare) software, and the decapping rate of the decapping enzyme was calculated (as shown in Table 6).

[4] = 6 h after intramuscular injection of LNP Fluc-mRNA
[5] = 12 h after intramuscular injection of LNP Fluc-mRNA
[6] = 24 h after intramuscular injection of LNP Fluc-mRNA
[7] = 48 h after intramuscular injection of LNP Fluc-mRNA
[8] = 96 h after intramuscular injection of LNP Fluc-mRNA
[9] = 168 h after intramuscular injection of LNP Fluc-mRNA

T1 sequence (P00573 whole entry): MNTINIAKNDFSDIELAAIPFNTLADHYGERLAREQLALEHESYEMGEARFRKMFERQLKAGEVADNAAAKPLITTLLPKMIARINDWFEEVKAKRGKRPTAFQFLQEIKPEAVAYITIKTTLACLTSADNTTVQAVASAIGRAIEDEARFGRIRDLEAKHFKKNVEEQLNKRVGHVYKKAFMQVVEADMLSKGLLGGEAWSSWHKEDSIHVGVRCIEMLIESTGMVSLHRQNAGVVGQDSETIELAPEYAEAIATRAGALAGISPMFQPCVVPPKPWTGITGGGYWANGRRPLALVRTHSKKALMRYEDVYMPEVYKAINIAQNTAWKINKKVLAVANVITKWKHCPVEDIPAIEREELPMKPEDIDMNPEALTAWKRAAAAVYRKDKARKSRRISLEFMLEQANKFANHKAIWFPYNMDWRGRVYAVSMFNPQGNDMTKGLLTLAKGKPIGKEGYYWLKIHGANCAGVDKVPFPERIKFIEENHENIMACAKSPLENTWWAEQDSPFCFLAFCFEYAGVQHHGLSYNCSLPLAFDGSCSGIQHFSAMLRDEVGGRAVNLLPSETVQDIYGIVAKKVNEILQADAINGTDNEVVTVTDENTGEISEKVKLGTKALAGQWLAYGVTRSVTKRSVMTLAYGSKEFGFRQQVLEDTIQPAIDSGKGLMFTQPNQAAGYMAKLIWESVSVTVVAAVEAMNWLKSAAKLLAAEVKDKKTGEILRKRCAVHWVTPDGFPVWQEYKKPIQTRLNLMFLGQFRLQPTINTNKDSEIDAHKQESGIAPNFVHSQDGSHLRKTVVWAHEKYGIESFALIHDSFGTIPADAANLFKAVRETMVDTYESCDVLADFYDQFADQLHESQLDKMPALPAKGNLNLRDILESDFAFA

Structure (SMILES)	Yield per unit template (T7 RNA polymerase [1]) [µg]	Particle size [2] [nm]	PDI [2]	EE [2] [%]	Average radiation intensity (BALB/C mice; [4]) [p/s/cm^2/sr]	Average radiation intensity (BALB/C mice; 6 h after intramuscular injection of LNP Fluc-mRNA, listed as compound 14)	Average radiation intensity (BALB/C mice; [5]) [p/s/cm^2/sr]	Average radiation intensity (BALB/C mice; [6]) [p/s/cm^2/sr]	Average radiation intensity (BALB/C mice; [7]) [p/s/cm^2/sr]	Average radiation intensity (BALB/C mice; [8]) [p/s/cm^2/sr]	Average radiation intensity (BALB/C mice; [9]) [p/s/cm^2/sr]	Capping rate (T7 RNA polymerase [3]) [%]	Decapping rate (%) of DCP2 enzyme (DCP2 enzyme) [%]	in vitro transcription yield of mRNA (T7 RNA polymerase [1])
COC1C(OP(=O)([O-])OC[C@H]2O[C@@H](n3cnc4c(=O)[nH]c(N)nc43)C(O)C2O)[C@@H](COP(=O)(O)OP(=O)(O)OP(=O)(O)OC[C@]23COC(C2O)[C@H]([n+]2cn(C)c4c(=O)[nH]c(N)nc42)O3)O[C@H]1n1cnc2c(N)ncnc21 (stereo partly drawn) [Compound 14, reference compound]	120.9	102.2	0.018	96.8	2589500	2,589,500 p/s/cm^2/sr	1622075	1099050	946675	57270	17828	77.5	28.8	
COCC1C(O)[C@H]([n+]2cn(C)c3c(=O)[nH]c(N)nc32)O[C@@H]1COP(=O)(O)OP(=O)(O)OP(=O)(O)OC[C@H]1O[C@@H](n2cnc3c(N)ncnc32)C(OC)C1OP(=O)([O-])OC[C@H]1O[C@@H](n2cnc3c(=O)[nH]c(N)nc32)C(O)C1O (stereo partly drawn) [HN3002, reference compound]		91.03	0.032	94.8									23.2	
COC1C(OP(=O)([O-])OC[C@H]2O[C@@H](n3cnc4c(=O)[nH]c(N)nc43)C(O)C2O)[C@@H](COP(=O)(O)OP(=O)(O)OP(=O)(O)OC[C@H]2O[C@@H]([n+]3cn(C)c4c(=O)[nH]c(N)nc43)C(O)C2OC)O[C@H]1n1cnc2c(N)ncnc21 (stereo partly drawn) [N-7413, reference compound]		100.5	0.041	95.4			1806125	906625	710545	68400	18233		48.6	
COC1C(OP(=O)([O-])OC[C@H]2O[C@@H](n3cnc4c(=O)[nH]c(N)nc43)C(O)C2O)[C@@H](COP(=O)(O)OP(=O)(O)OP(=O)(O)OC[C@]23O[C@@H]([n+]4cn(C)c5c(=O)[nH]c(N)nc54)C(O[C@H]2CCN(C)C)C3O)O[C@H]1n1cnc2c(N)ncnc21 (stereo partly drawn) [YK-CAP-001]	89.3	86.13	0.044	95.7	1728300		985800	612430	578750	43485	10467	73.1	26.3	89.3
COC1C(OP(=O)([O-])OC[C@H]2O[C@@H](n3cnc4c(=O)[nH]c(N)nc43)C(O)C2O)[C@@H](COP(=O)(O)OP(=O)(O)OP(=O)(O)OC[C@]23O[C@@H]([n+]4cn(C)c5c(=O)[nH]c(N)nc54)C(O[C@H]2CC#N)C3O)O[C@H]1n1cnc2c(N)ncnc21 (stereo partly drawn) [YK-CAP-002]	103.1	86.31	0.058	93.1	1466925		801300	278665	320725	20893	9768	70.2	24.6	
CNc1ncnc2c1ncn2[C@@H]1O[C@H](COP(=O)(O)OP(=O)(O)OP(=O)(O)OC[C@H]2O[C@@H]([n+]3cn(C)c4c(=O)[nH]c(N)nc43)C(O)C2O)C(OP(=O)([O-])OC[C@H]2O[C@@H](n3cnc4c(=O)[nH]c(N)nc43)C(O)C2O)C1OC (stereo partly drawn) [m6A, reference compound]		89.99	0.047	94.2			702940	201585	238500	33586	12000		27.5	
